Data taken from patent publication US20240197650A1, “Combination of Cinnamaldheyde and Eugenol with Antimycotic Activity” (priority 2021, published 2024).

Legend:
[1] = system: L. acidophilus strain La-14; experiment: Microdilution vs L. acidophilus; format: cell-based, Lactobacillus acidophilus; details: for MIC vs L. acidophilus: MRS broth, 37° C. 48 hours, anaerobiosis; for MIC vs L. acidophilus relative to the observed maximum MIC vs Candida spp: maximum MIC in 2 strains out of 18 only
Method: The antibacterial activity of […] eugenol vs L. acidophilus was studied by using the disk diffusion method (reading scheme as reported in FIG. 1) and the microdilution method (reading scheme as reported in FIG. 2). A L. acidophilus strain named La-14 (Danisco SpA, Milan, Italy) was tested. The essential oils (80% oil, 20% DMSO) were dissolved in MRS broth up to a concentration of 8% v/v (so obtaining a final concentration of 4% v/v). In a 96-well microtiter plate, 1⁄2 serial dilutions of the oils were carried out (volume: 100 μl. […] Each well was then injected with 100 μl of the cell suspension. The microtiter plates were incubated at 37° C. for 48 hours in anaerobiosis. MIC was determined as the concentration of the oils in the first well which is not cloudy. The experiment was carried out in duplicate.

C. lusitaniae [2] = experiment: Microdilution method MIC/MFC, C. lusitaniae strain; format: cell-based; details: C. lusitaniae 1
Method: (§1) A total of eighteen strains belonging to Candida spp. (15 C. albicans, 2 C. glabrata and 1 C. lusitaniae) derived from a collection of vaginal strains isolated in CHROMAgar Candida (BD Italia SpA, Milan, Italy) were grown on Potato Dextrose Agar (Oxoid Thermofisher SpA, Milan, Italy) at 35° C. for 24 hours.
(§2) The antifungal activity of amphotericin B and of cinnamaldheyde and eugenol were tested with the microdilution method as reported by Bona et al. [Bona et al., Sensitivity of Candida albicans to essential oils: are they an alternative to antifungal agents? J Appl Microbiol. 2016 December, 121(6): 1530-1545] with small changes. All the 18 Candida spp strains were tested. For each isolated, the colonies deriving from cultures (24 hours) in PDA were diluted in saline up to a concentration of 2×10^3 CFU/ml (so obtaining a final concentration of 10 3CGU/ml). Cinnamaldehyde and eugenol were dissolved in DMSO (80% oil, 20% DMSO), then diluted in Sabouraud broth up to a concentration of 8% v/v (so obtaining a final concentration of 4% v/v). Then, in a 96-well microtiter plate ½ serial dilution of amphotericin B (range 32-0.032 μg/ml, for a final range of 16-0.016 μg/ml) and of the essential oils (range 8-0.004% v/v, for a final range of 4-0.002% v/v) were carried out. Each well was then injected with 100 μl of cell suspension. The negative control contained DMSO diluted in Sabouraud broth (at 2% v/v, for a final concentration of 1% v/v). […] Each experiment was carried out in duplicate. The Minimum Inhibitory Concentration (MIC) was determined as the concentration of the oils in the first well which is not cloudy. The Minimum Fungicidal Concentration (MFC) was determined as the lowest concentration of the oils, with the agar culture showing the complete absence of fungal growth. The determination of the amphotericin B MIC was carried out also according to the EUCAST guidelines (cutoff 1 μg/ml) [https://eucast.org/astoffungi/clinicalbreakpointsforantifungals], all the results being consistent.

C. albicans = experiment: Microdilution method MIC/MFC, C. albicans strains; format: cell-based
Method: as §1, §2

C. lusitaniae [3] = experiment: Disk diffusion method, C. lusitaniae strain; format: cell-based; details: C. lusitaniae 1
Method: as §1
Colonies were re-suspended in sterile saline at a density corresponding to #0.5 McFarland (opacity standard). #0.5 McF correspond to 1.4×10^6 colony forming units (CFU)/ml for C. albicans, 4.3×10^6 CFU/ml for C. glabrata and 3×10^6 CFU/ml for C. lusitaniae [Guinea J. et al., Rapid antifungal susceptibility determination for yeast isolates by use of Etest performed directly on blood samples from patients with fungemia, J Clin Microbiol. 2010 June, 48(6): 2205-12]. Then, the sensitivity test vs the two oils has been performed. The disk diffusion method was carried out as follows: for each tested strain, 4 plates of Potato Dextrose Agar (PDA) were seeded in 3 directions to produce a confluent growth, by sterile swab soaked in the cell suspension. Sorbent paper disks (Oxoid Thermofisher SpA, Milan, Italy) 6.0 mm diameter were placed on the agar surface and added with 10 μl of each essential oil. Disks soaked with 10 μg amphotericin B were used as positive control. Also disks of chlortrimazole (from 10 μg to 40 μg) were used, but the inhibition rings could not be clearly read due to the formation of a re-growth ring. Disks soaked with 10 μl pure dimethylsulphoxide (DMSO, Sigma-Aldrich, St. Louis, MO, USA) were used as negative control. The plates were incubated at 35° C. for 24 hours. All the experiments were carried out in duplicate. […]

Row | Compound | MIC vs L. acidophilus relative to the average MIC vs Candida spp [1] | MIC vs L. acidophilus [1] [% v/v] | MIC vs L. acidophilus relative to the observed maximum MIC vs Candida spp [1] | MFC (C. lusitaniae [2]) [% v/v] | MIC (C. lusitaniae [2]) [% v/v] | MFC (C. albicans; C. albicans 1) [% v/v] | MIC (C. albicans; C. albicans 1) [% v/v] | MFC (C. albicans; C. albicans 2) [% v/v] | MIC (C. albicans; C. albicans 2) [% v/v] | MFC (C. albicans; C. albicans 3) [% v/v] | MIC (C. albicans; C. albicans 3) [% v/v] | MFC (C. albicans; C. albicans 4) [% v/v] | MIC (C. albicans; C. albicans 4) [% v/v] | MFC (C. albicans; C. albicans 5) [% v/v] | MIC (C. albicans; C. albicans 5) [% v/v] | MFC (C. albicans; C. albicans 6) [% v/v] | MIC (C. albicans; C. albicans 6) [% v/v] | MFC (C. albicans; C. albicans 7) [% v/v] | MIC (C. albicans; C. albicans 7) [% v/v] | MFC (C. albicans; C. albicans 8) [% v/v] | also measured
1 | C=CCc1ccc(O)c(OC)c1 [Eugenol, eugenol] | about 6 fold | 0.25 | double | 0.064 | 0.032 | 0.032 | 0.032 | 0.032 | 0.032 | 0.032 | 0.016 | 0.064 | 0.064 | 0.032 | 0.008 | 0.032 | 0.032 | 0.064 | 0.032 | 0.032 | MIC (C. albicans; C. albicans 8): 0.032 % v/v; MFC (C. albicans; C. albicans 9): 0.125 % v/v; MIC (C. albicans; C. albicans 9): 0.125 % v/v; MFC (C. albicans; C. albicans 10): 0.016 % v/v; MIC (C. albicans; C. albicans 10): 0.016 % v/v; MFC (C. albicans; C. albicans 11): 0.125 % v/v; MIC (C. albicans; C. albicans 11): 0.064 % v/v; MFC (C. albicans; C. albicans 12): 0.064 % v/v; MIC (C. albicans; C. albicans 12): 0.016 % v/v; MFC (C. albicans; C. albicans 13): 0.125 % v/v; MIC (C. albicans; C. albicans 13): 0.064 % v/v; MFC (C. albicans; C. albicans 14): 0.125 % v/v; MIC (C. albicans; C. albicans 14): 0.032 % v/v; MFC (C. albicans; C. albicans 15): 0.064 % v/v; MIC (C. albicans; C. albicans 15): 0.032 % v/v; Diameters of the inhibition rings (including 6.0 mm of the disk) (C. lusitaniae [3]): 43.0 mm
2 | O=CC=Cc1ccccc1 [Cinnamaldheyde, cinnamaldehyde] | about 6.7 fold | 0.032 | double | ≤0.002 | ≤0.002 | 0.008 | 0.004 | 0.008 | 0.004 | 0.004 | 0.004 | 0.008 | ≤0.002 | 0.004 | 0.004 | 0.008 | 0.004 | 0.008 | ≤0.002 | 0.008 | MIC (C. albicans; C. albicans 8): 0.004 % v/v; MFC (C. albicans; C. albicans 9): 0.064 % v/v; MIC (C. albicans; C. albicans 9): 0.016 % v/v; MFC (C. albicans; C. albicans 10): ≤0.002 % v/v; MIC (C. albicans; C. albicans 10): ≤0.002 % v/v; MFC (C. albicans; C. albicans 11): ≤0.002 % v/v; MIC (C. albicans; C. albicans 11): ≤0.002 % v/v; MFC (C. albicans; C. albicans 12): ≤0.002 % v/v; MIC (C. albicans; C. albicans 12): ≤0.002 % v/v; MFC (C. albicans; C. albicans 13): 0.016 % v/v; MIC (C. albicans; C. albicans 13): 0.008 % v/v; MFC (C. albicans; C. albicans 14): 0.016 % v/v; MIC (C. albicans; C. albicans 14): 0.004 % v/v; MFC (C. albicans; C. albicans 15): 0.008 % v/v; MIC (C. albicans; C. albicans 15): 0.004 % v/v; Diameters of the inhibition rings (including 6.0 mm of the disk) (C. lusitaniae [3]): 75.0 mm
